Values of other authors, collected in patent US11607623B2, “Dynamic interface system and its application in supercritical fluid extraction and chromatography” (CORNERSTONE TECHNOLOGIES LLC, priority 2019, dated 2023).

Row | Structure (SMILES) | molar solubility in SC-CO2, course across temperature (220-240 bar, across the 42-72° C. temperature ranges) | solubility in SC-CO2 at 54° C. relative to 41° C. or 61° C. (lower pressures 160-180 bar) | solubility in SC-CO2, change with temperature (pressures of 220-240 bar, temperature raised from 42° C. to 72° C.)
1 | CCCCCc1cc(O)c2c(c1)OC(C)(C)c1ccc(C)cc1-2 [CBN, cannabinol] | inverted-U curve | two-fold greater | –
2 | CCCCCc1cc(O)c2c(c1)OC(C)(C)[C@@H]1CCC(C)=C[C@@H]21 [THC, delta-9-tetrahydrocannabinol] | – | – | two-fold increase
